Assay results reported in patent US10106577B2, “Agonists of neurotrophin receptors and their use as medicaments” (BIONURE FARMA, S.L., priority 2010, dated 2018).

What was measured:
[1] = system: mice affected by EAE; assay: Experimental autoimmune encephalomyelitis (EAE) model of MS; type: in vivo, C57BL/6 mice
Procedure: The effect of G79 was tested in the animal model of MS, the experimental autoimmune encephalomyelitis (EAE), by performing a preventive trial (in which the therapy starts at the time of the induction of the disease) and a curative trial (in which the therapy starts when the animals are already suffering from the disease). Female C57BL/6 mice from Harlan (8-12 weeks old) were immunized subcutaneously in both hind pads with 300 μg of myelin oligodendrocyte glycoprotein (MOG) peptide 35-55 (Spikem, Firenze) emulsified with 50 μg of Mycobacterium tuberculosis (H37Ra strain; Difco, Detroit, Mich.) in incomplete Freund's adjuvant (IFA) as previously described in Palacios et al., 2007. The mice were injected intraperitoneally with Pertussis toxin (Sigma) (500 ng) at the time of immunization and 2 days later. The animals were weighted and inspected for clinical signs of disease on a daily basis by a blinded observer. The severity of the disease EAE was assessed for 30 days according to the following scale: 0=normal; 0.5=mild limp tail; 1=limp tail; 2=mild paraparesis of the hind limbs, unsteady gait; 3=moderate paraparesis, voluntary movements still possible; 4=paraplegia or tetraparesis; 5=moribund state. At the end of the study, the mice were anesthetized and perfused intracardially with 4% of paraformaldehyde in 0.1 M phosphate buffer (pH 7.6). The brains, spinal cords and spleens were dissected and either fixed or frozen until use. Also serum was obtained from all the animals included in the study. This procedure was approved by the University of Barcelona Committee on Animal Care.
Two different experiments were performed to assess both the preventive effect and curative effect of G79, compared to other drugs targeting neurotrophin pathway (Gambogic amide and Xaliproden) or one of the first line therapy for the treatment of MS, i.e., Glatiramer acetate.
For the preventive trial, 10 animals were treated with intraperitoneal injection of G79 at the concentration of 40 mg/kg, 10 animals were treated with intraperitoneal injection of G79 at the concentration of 100 mg/kg, 10 animals were treated with intraperitoneal injection of Gambogic amide at the concentration of 2 mg/kg, 10 animals were treated with oral administration of Xaliproden at the concentration of 10 mg/kg. As both Gambogic amide and Xaliproden were diluted with different percentage of DMSO, 5 animals were treated with intraperitoneal injection of placebo (physiologic solution plus 1% DMSO) and other 5 animals were treated with placebo oral (physiologic solution plus 2.5% DMSO), respectively. The treatments were performed daily, starting after the immunization day.
For the curative trial, to reduce the discrepancy between the oral administration and intraperitoneal injections, as stress can deeply affect the development of the clinical scores in animals, all the treatments were performed by intraperitoneal injections. For this study, 8 animals were treated with G79 at the concentration of 40 mg/kg, 8 animals were treated with G79 at the concentration of 100 mg/kg, 8 animals were treated with Gambogic amide at the concentration of 2 mg/kg, 8 animals were treated with Xaliproden at the concentration of 10 mg/kg, 8 animals were treated with Glatiramer acetate at the concentration of 5 mg/kg, 8 animals were treated with placebo (physiologic solution plus 2.5% DMSO). The treatments were performed daily starting after the increase of the clinical score at score 2 (after the second day at this score).

[2] = system: TNFα; assay: Neuroinflammation in vitro model, organotypic cerebellar culture challenged with LPS, ELISA; type: cell-based, mice; settings: G79 100 ng/ml pre-treatment; LPS 15 μg/ml
Description: (§1) Neonates mice (day 8 after birth (P8)) were decapitated after anaesthetic IP injection and whole brains were removed aseptically. Cerebellum was separated from the rest of the brain and placed on a metal vibratome plate. Once the cerebellum was attached to the surface of the plate, 400 μm sagittal sections were cut using the vibratome. The slices were then transferred with a plastic Pasteur pipette to a cell culture plate containing an organotypic culture medium (5% CO2 in 50% basal medium with Earle's salt, 25% Hank's buffered salt solution, 25% inactivated horse serum, 5 mg/ml glucose, 0.25 mM L-glutamine and 25 μg/ml penicillin/streptomycin). After separating and isolating each slice, the cerebellar slices were then transferred to 6-well plates (3 slices for each well) containing a 30 mm culture plate insert with 0.4 μm pores (Millipore) and 1 ml full culture medium, pre-conditioned by incubation for at least 2 hours at 37° C., and 5% CO2 was added into each well below the insert. The six-well plates were kept at 37° C. and under 5% CO2, and half the medium was replaced every 2 days. All the experiments were performed after 1 week of culture in such conditions.
(§2) After one week of organotypic cerebellum culture, the medium of each well was replaced with fresh medium and G79 (100 ng/ml) or placebo (physiologic solution) was added to the wells and kept in incubation for 1 hour. […]

[3] = system: IL-1β; assay: as above; type: cell-based, mice; settings: G79 100 ng/ml pre-treatment; LPS 15 μg/ml
Description: as §1, §2

[4] = preventive trial, 100 mg/Kg i.p.

`CC(C)CN(CC(=O)N(CCCN1CCCC1=O)CC(N)=O)C(=O)CNCCc1ccccc1F` [Compound G79, [N-(2-(2′-Fluorophenyl)ethyl)glycyl]-[N-(2-methylpropyl)glycyl]-N-[3-(2′-oxopyrrolidinyl)propyl]glycinamide] was tested, and the “therapeutic effect in ameliorating the clinical score (in words)” value ([1]; curative trial, 100 mg/Kg i.p.) was “best therapeutic effect in ameliorating the clinical score”, the clinical score ([1]; curative trial, 100 mg/Kg i.p., 16th day) was 2.8±1.2 and the clinical score ([1]; curative trial, 100 mg/Kg i.p., day 19th) was 1.75±1. For the same compound, the clinical score ([1]; curative trial, 100 mg/Kg i.p., day not printed (between day 16th and 23rd)) was 1.6±0.8, the “delaying the disease, comparison of the doses” value [1, 4] was “more effective in delaying the disease” and the “final clinical score at day 30th” value [1, 4] was “lower compared to placebo treated animals”. The “onset of the disease (clinical score)” value ([1]; preventive trial, G79 40 and 100 mg/kg i.p. daily) was “delay in the presence of the disease, although not significant”, the “production of TNFα compared to placebo” value [2] was “reduced at 6 and 12 hours” and the “release of IL-1β” value [3] was “did not affect the release of IL-1β”.
